Experimental data: patent publication US20250177481A1, “SCO-spondin-derived polypeptides for enhancing synaptic transmission” (AXOLTIS PHARMA, priority 2021, published 2025)
Values joined by “and” are separate entries in the source; they are usually repeats but may differ in a detail not shown here. Equal values may be shown once. Positions of bridges follow the written chain, without caps; N, C: chain ends. No end group written: not given here.

How the values were obtained:
[1] = system: subchronic PCP-induced cognitive deficits in mice; assay: T-maze continuous alternation task in subchronic PCP mice; type: in vivo, Swiss CD-1 mice; conditions: PCP alone 30.71, control 66.43, 5 mg/kg
Excerpt: Phenycyclidine (PCP) is an antagonist of NMDA receptor, its administration in healthy humans produces schizophrenia-like symptoms, therefore PCP is often used to mimic schizophrenia in rodents. […] In addition, brain samples were collected shorlty after the T-Maze test to measure the levels of cerebral biomarkers involved in synaptic plasticity.
Sixty (60) male Swiss CD-1 mice were purchased from Janvier Labs (Le Genest-Saint-Isle, France) one week before the start of the study for acclimation. Mice were group-housed (6-8 mice per Eurostandard type Ill cage) and maintained in a room with controlled temperature (21-22° C.) under a reversed 12 h/12 h light-dark cycle (lights on: 5:[…]; lights off: 05:30 am) with food and water available ad libitum. The weight of mice ranged from 25.9 and 36.4 g. […]
Nicotine used as a positive control was administered at a dose of 0.4 mg/kg intraperitoneally 30 minutes prior to the T-maze trial
After administration of compounds at different timepoints all animals were tested for continuous alternation task in the T-Maze. The T-maze apparatus was made of gray Plexiglas with a main stem (55-cm long×10-cm wide×20-cm high) and two arms (30-cm long×10-cm wide×20-cm high) positioned at a 90-degree angle relative to the main stem. A start box (15-cm long×10-cm wide) was separated from the main stem by a guillotine door. Horizontal doors were also provided to close specific arms during the force choice alternation task. The experimental protocol consisted in one single session that started with 1 “forced-choice” trial, followed by 14 “free-choice” trials (Gerlai, 1998). In the first “forced-choice” trial, the mouse was confined 5 s in the start arm and then released while either the left or right goal arm was blocked by closing the sliding door. Then, it walked through the maze, eventually entered the open goal arm, and then returned to the start position. Immediately after the mouse came back to the start position, the left or right goal door was opened (i.e. the two goal doors were opened), and the mouse could choose freely between the left and right goal arms (first “free choice trial”). The mouse was considered as entered in the arm when it placed its four paws in the arm. The opposite goal door was then closed until the animal returned to the start arm. Then, a second “free choice trial” began by the opening of the closed goal door (i.e. the two goal doors were opened), leaving the choice to the mouse to enter either into the right or the left arm. The session was considered finished as soon as 14 free-choice trials had been performed in less than 10 min, and the mouse was removed from the maze. The time needed to reach these 14 “free-choices” was recorded.
The percent of spontaneous alternations was calculated as number of spontaneous alternations divided by the number of free-choice trials, an index of spatial short-term working memory. The apparatus was cleaned between each animal using alcohol (70%). Urine and feces were removed from the maze. During the trials, animal handling and the visibility of the operator were minimized as much as possible. Animals were tested in a random and blind manner.

[2] = system: basal excitatory synaptic transmission at CA3-CA1 synapses; assay: fEPSP input-output (I/O) recordings in CA1 of mouse hippocampal slices; type: cell-based, C57Bl6/J mice; conditions: NX218 250 μg/mL; for Normalized fEPSP slope: normalized to max slope in vehicle, mean of 10 slices
Description: Comparison of postsynaptic responses in control versus NX218 peptide conditions were assessed.
Five (C57Bl6/J) male mice 4-5 weeks-old were obtained from Charles River, France and housed in an animal facility. Animal care was compliant with national and local Ethics committee recommendations. Ten Sagittal hippocampal brain slices (2 per mouse) were obtained using standard brain slicing methods (Knobloch et al. 2007). Mice were anesthetized with 5% isoflurane and then decapitated. Brain was dissected out of the cranium and immediately immersed in ice-cold freshly prepared artificial cerebrospinal fluid (aCSF) containing: 124 mM NaCl, 3.75 mM KCl, 2 mM MgSO4, 2 mM CaCl2, 26.5 mM NaHCO3, 1.25 mM NaH2PO4, 10 mM glucose, continuously oxygenated (95% O2, 5% CO2) (pH=7.4) for a total duration of 3-4 minutes. Acute slices (350 μm thick) were prepared using a vibratome (VT 1000S; Leica Microsystems, Bannockburn, IL). Sections were incubated in standard aCSF (124 mM NaCl, 3.75 mM KCl, 2 mM MgSO4, 2 mM CaCl2, 26.5 mM NaHCO3, 1.25 mM NaH2PO4, 10 mM glucose) at room temperature for at least 1 h before recordings.
For electrophysiological recordings, a single slice was placed in the recording chamber (room temperature), submerged and continuously superfused with gassed aCSF (95% O2, 5% CO2; pH=7.4) at a constant rate (2 mL min^−1) for the reminder of the experiment. Extracellular field excitatory postsynaptic potentials (fEPSPs) were recorded in the CA1 stratum radiatum using a glass micropipette filled with aCSF. fEPSPs were evoked by the electrical stimulation of Schaffer collateral-commissural pathway at 0.1 Hz (i.e., a single pulse every 10 s) with a glass stimulating electrode (borosilicate capillary glass with filament, standard wall; OD: 1.5 mm; ID: 0.86 mm; Length: 75 mm; ref: W3 30-0060 from Harvard Apparatus) placed in the stratum radiatum.
After 10 minutes of stabilization, basal synaptic transmission was assessed. […] This procedure was repeated 3 times, 30 seconds interval for each session. A single session final I/O curve was obtained by plotting the averaged rationalised slopes of fEPSPs as a function of the stimulation intensity.
The signal was amplified with an Axopatch 200B amplifier (Molecular Devices, Union City, CA) digitized by a Digidata 1322A interface (Axon Instruments, Molecular Devices, US) and sampled at 10 kHz. Recordings were acquired using Clampex (Molecular Devices) and analyzed with Clampfit (Molecular Devices).
All data was normalized from the fEPSP maximum slope recorded in control condition (during vehicle bath application). […] Potential outliers were identified for exclusion using the following criteria: >3 standard deviations away from the group mean in either direction.

Q: How did the “Spontaneous alternations in T-maze” value ([1]; PCP + 5 mg/kg i.p. on D12, D13 and D14 (48 h, 24 h and 2 h before trial), n=10) turn out when “W-S-G-W-S-S-C-S-R-S-C-G [NX218] (WSGWSSCSRSCG; disulfide 7-11 (inferred))” was run?
A: 62% and 62.13%

Q: And the “Spontaneous alternations in T-maze” value ([1]; PCP + 5 mg/kg i.p. on D13 (24 h before trial), n=9)?
A: 35% and 34.92%

Q: And the “Spontaneous alternations in T-maze” value ([1]; PCP + 5 mg/kg i.p. on D14 (2 h before trial), n=10)?
A: 53% and 52.87%

Q: And the “change of basal excitatory synaptic transmission vs control condition (whole I/O curve)” value [2]?
A: statistical increase

Q: What about the “Normalized fEPSP slope” value ([2]; stimulation intensity 0 µA) of the same substance?
A: 0.09%

Q: What about the “Normalized fEPSP slope” value ([2]; stimulation intensity 50 µA) of the same substance?
A: 30.78%

Q: And the “Normalized fEPSP slope” value ([2]; stimulation intensity 100 µA)?
A: 71.26%

Q: And the “Normalized fEPSP slope” value ([2]; stimulation intensity 150 µA)?
A: 110.51%

Q: And the “Normalized fEPSP slope” value ([2]; stimulation intensity 200 µA)?
A: 134.44%

Q: And the “Normalized fEPSP slope” value ([2]; stimulation intensity 250 µA)?
A: 149.89%

Q: And the “Normalized fEPSP slope” value ([2]; stimulation intensity 300 µA)?
A: 156.80%

Q: What about the “Normalized fEPSP slope” value ([2]; stimulation intensity 350 µA) of the same substance?
A: 160.72%

Q: And the “Normalized fEPSP slope” value ([2]; stimulation intensity 400 µA)?
A: 164.01%

Q: And the “Normalized fEPSP slope” value ([2]; stimulation intensity 450 µA)?
A: 164.39%

Q: What about the “Normalized fEPSP slope” value ([2]; stimulation intensity 500 µA) of the same substance?
A: 166.29%

Q: What about the “Normalized fEPSP slope” value ([2]; stimulation intensity 550 µA) of the same substance?
A: 167.00%

Q: What about the “Normalized fEPSP slope” value ([2]; stimulation intensity 600 µA) of the same substance?
A: 167.37%

Q: What about the “Normalized fEPSP slope” value ([2]; stimulation intensity 650 µA) of the same substance?
A: 168.66%

Q: What about the “Normalized fEPSP slope” value ([2]; stimulation intensity 700 µA) of the same substance?
A: 169.65%

Q: And the “Normalized fEPSP slope” value ([2]; stimulation intensity 750 µA)?
A: 169.89%

Q: What about the “Normalized fEPSP slope” value ([2]; stimulation intensity 800 µA) of the same substance?
A: 170.46%

Q: And the “Normalized fEPSP slope” value ([2]; stimulation intensity 850 µA)?
A: 171.65%
